Patent publication US11371055B2, “Herbicide resistance genes” (CORTEVA AGRISCIENCE LLC, priority 2005, dated 2022)

Assays:
wildtype KY160 tobacco = assay: Cross tolerance test, wildtype tobacco; format: in vivo, Nicotiana tabacum
Description: Two to four T0 individuals surviving high rates of 2,4-D and fluroxypyr were saved from each event and allowed to self fertilize in the greenhouse to give rise to T1 seed. The T1 seed was stratified, and sown into selection trays much like that of Arabidopsis (Example 7.4), followed by selective removal of untransformed nulls in this segregating population with 560 g ai/ha glufosinate (PAT gene selection). Survivors were transferred to individual 3-inch pots in the greenhouse. These lines provided high levels of resistance to 2,4-D in the T0 generation. Improved consistency of response is anticipated in T1 plants not having come directly from tissue culture. These plants were compared against wildtype KY160 tobacco. All plants were sprayed with a track sprayer set at 187 L/ha. The plants were sprayed from a range of 140-2240 g ac/ha 2,4-D dimethylamine salt (DMA), 70-1120 g ace/ha triclopyr or 35-560 g ae/ha fluroxypyr. All applications were formulated in water. Each treatment was replicated 2-4 times. Plants were evaluated at 3 and 14 days after treatment. Plants were assigned injury rating with respect to stunting, chlorosis, and necrosis. The T1 generation is segregating, so some variable response is expected due to difference in zygosity.

[1] = system: wild-type canola (Nex710); assay: Field tolerance of canola, wild-type; format: in vivo, Brassica napus; conditions: for % Visual Injury at 14 DAT: Wild Type (Nex710)
Experimental: Field level tolerance trial was conducted on two AAD-12 (v1) events 3759(20)018.001 and 3759(18)030.001 and a wild-type canola (Nex710) in Fowler, Ind. The experimental design was a randomized complete block design with 3 replications. Herbicide treatments were 2,4-D (dimethylamine salt) at 280, 560, 1120, 2240 and 4480 g ac/ha, triclopyr at 840 g ae/ha, fluroxypyr at 280 g ae/ha and an untreated control. Within each herbicide treatment, single 20 ft row/event for event 3759(18)030.0011, 3759(18)018.001 and wild-type line (Nex710) were planted with a 4 row drill on 8 inch row spacing. Herbicide treatments were applied when canola reached the 4-6 leaf stage using compressed air backpack sprayer delivering 187 L/ha carrier volume at 130-200 kpa pressure. Visual injury ratings were taken at 7, 14 and 21 days after application.

[2] = system: Roundup Ready (RR) control corn hybrid (2P782); assay: Field tolerance of corn: visual injury and brace root injury, control hybrid; format: in vivo, Zea mays; conditions: for visual injury: 14 DAT; for % Visual Injury 14DAT: 2P782 control
Experimental: (§1) Seeds were planted with cone planter on 40-inch row spacing at Wayside and 30 inch spacing at Fowler. […] Herbicide treatments were 2,4-D (dimethylamine salt) at 1120, 2240 and 4480 g ae/ha, triclopyr at 840 g ae/ha, fluroxypyr at 280 g ae/ha and an untreated control. The AAD-12 (v1) events contained the AHAS gene as a selectable marker. The F2 corn events were segregating so the AAD-12 (v1) plants were treated with imazethapyr at 70 g ae/ha to remove the null plants. Herbicide treatments were applied when corn reached the V6 stage using compressed air backpack sprayer delivering 187 L/ha carrier volume at 130-200 kpa pressure. Visual injury ratings were taken at 7, 14 and 21 days after treatment.

[3] = system: AAD-12 (v1) pDAB4101 corn events (4101(0)003.R.003.AF and 4101(0)005.R001.AF); assay: Field tolerance of corn: visual injury and brace root injury, AAD-12 events; format: in vivo, Zea mays
Experimental: as §1, with “Visual injury ratings were taken at 7, 14 and 21 days after treatment.” left out

[4] = system: AAD-12 (v1) tobacco lines (pDAS1580-[1]-018.001, pDAS1580-[1]-004.001, pDAS1580-[1]-020.016); assay: Field tolerance of tobacco, AAD-12 lines; format: in vivo, Nicotiana tabacum
Experimental: Field level tolerance trials were conducted on three AAD-12 (v1) lines (events pDAS1580-[1]-018.001, pDAS1580-[1]-004.001 and pDAS1580-[1]-020.016) and one wild-type line (KY160) at field stations in Indiana and Mississippi. Tobacco transplants were grown in the greenhouse by planting T1 seed in 72 well transplant flats (Hummert International) containing Metro 360 media according to growing conditions indicated above. The null plants were selectively removed by Liberty selection as previously described. The transplant plants were transported to the field stations and planted at either 14 or 24 inches apart using industrial vegetable planters. Drip irrigation at the Mississippi site and overhead irrigation at the Indiana site were used to keep plants growing vigorously.
The experimental design was a split plot design with 4 replications. The main plot was herbicide treatment and the sub-plot was tobacco line. The herbicide treatments were 2,4-D (dimethylamine salt) at 280, 560, 1120, 2240 and 4480 g ac/ha, triclopyr at 840 g ae/ha, fluroxypyr at 280 g ac/ha and an untreated control. Plots were one row by 25-30 ft. Herbicide treatments were applied 3-4 weeks after transplanting using compressed air backpack sprayer delivering 187 L/ha carrier volume at 130-200 kpa pressure. Visual rating of injury, growth inhibition, and epinasty were taken at 7, 14 and 21 days after treatment.

[5] = pDAS1580-[1]-004.001, 280 GM AE/HA
[6] = pDAS1580-[1]-018.001, 280 GM AE/HA
[7] = pDAS1580-[1]-020.016, 280 GM AE/HA

CNC.O=C(O)COc1ccc(Cl)cc1Cl [2,4-D DMA]
Average % Injury of Replicates 14 DAT (wildtype KY160 tobacco; 140 g ae/ha): 45% | Average % Injury of Replicates 14 DAT (wildtype KY160 tobacco; 560 g ae/ha): 60% | Average % Injury of Replicates 14 DAT (wildtype KY160 tobacco; 2240 g ae/ha): 73%

O=C(O)COc1ccc(Cl)cc1Cl [2,4-D, 2,4-dichlorophenoxyacetic acid]
visual injury ([1]; 2,4-D at 2240 g ae/ha (4× rate), 14DAT): 72% | % Visual Injury at 14 DAT ([1]; 280 GM AE/HA): 0 e % | % Visual Injury at 14 DAT ([1]; 560 GM AE/HA): 15 d % | % Visual Injury at 14 DAT ([1]; 1120 GM AE/HA): 33 bc % | % Visual Injury at 14 DAT ([1]; 2240 GM AE/HA): 48 a % | visual injury ([2]; 2,4-D at 4480 g ae/ha, V6 stage): 44% | % Visual Injury 14DAT ([2]; 1120 g ae/ha): 9% | % Visual Injury 14DAT ([2]; 2240 g ae/ha): 20% | % Visual Injury 14DAT ([2]; 4480 g ae/ha): 34% | brace root injury ([2]; 4480 g ae/ha of 2,4-D): severe brace root fusing and malformation | Brace Root Injury Rating (0-10 scale) 28DAT ([2]; Wild-type NK603, 1120 g ae/ha): 3 | Brace Root Injury Rating (0-10 scale) 28DAT ([2]; Wild-type NK603, 2240 g ae/ha): 5 | Brace Root Injury Rating (0-10 scale) 28DAT ([2]; Wild-type NK603, 4480 g ae/ha): 6 | visual injury ([3]; 2,4-D at the 1, 2 and 4× rates, V6 stage, 14 DAT): 0% | brace root injury ([3]; 4480 g ae/ha of 2,4-D): no brace root injury | % Visual Injury 14DAT ([3]; AAD-12 4101(0)003.R.003.AF, 1120 g ae/ha): 0% | % Visual Injury 14DAT ([3]; AAD-12 4101(0)003.R.003.AF, 2240 g ae/ha): 0% | % Visual Injury 14DAT ([3]; AAD-12 4101(0)003.R.003.AF, 4480 g ae/ha): 0% | % Visual Injury 14DAT ([3]; AAD-12 4101(0)005.001.AF, 1120 g ae/ha): 0% | % Visual Injury 14DAT ([3]; AAD-12 4101(0)005.001.AF, 2240 g ae/ha): 1% | % Visual Injury 14DAT ([3]; AAD-12 4101(0)005.001.AF, 4480 g ae/ha): 1% | Brace Root Injury Rating (0-10 scale) 28DAT ([3]; AAD-12 event 4101(0)003.R.003.AF, 1120 g ae/ha): 0 | Brace Root Injury Rating (0-10 scale) 28DAT ([3]; AAD-12 event 4101(0)003.R.003.AF, 2240 g ae/ha): 0 | Brace Root Injury Rating (0-10 scale) 28DAT ([3]; AAD-12 event 4101(0)003.R.003.AF, 4480 g ae/ha): 0 | Brace Root Injury Rating (0-10 scale) 28DAT ([3]; AAD-12 event 4101(0)005.001.AF, 1120 g ae/ha): 0 | Brace Root Injury Rating (0-10 scale) 28DAT ([3]; AAD-12 event 4101(0)005.001.AF, 2240 g ae/ha): 0 | Brace Root Injury Rating (0-10 scale) 28DAT ([3]; AAD-12 event 4101(0)005.001.AF, 4480 g ae/ha): 0 | average injury ([4]; 2,4-D at the 2× rate, 14DAT): 1% | average injury ([4]; 2,4-D at the 4× rate, 14DAT): 4% | average injury ([4]; 2,4-D at the 8× rate, 14 DAT): 4% | Average % Injury across locations at 14 DAT [4, 5]: 0% | Average % Injury across locations at 14 DAT ([4]; pDAS1580-[1]-004.001, 560 GM AE/HA): 0% | Average % Injury across locations at 14 DAT ([4]; pDAS1580-[1]-004.001, 1120 GM AE/HA): 1% | Average % Injury across locations at 14 DAT ([4]; pDAS1580-[1]-004.001, 2240 GM AE/HA): 4% | Average % Injury across locations at 14 DAT ([4]; pDAS1580-[1]-004.001, 4480 GM AE/HA): 4% | Average % Injury across locations at 14 DAT [4, 6]: 0% | Average % Injury across locations at 14 DAT ([4]; pDAS1580-[1]-018.001, 560 GM AE/HA): 2% | Average % Injury across locations at 14 DAT ([4]; pDAS1580-[1]-018.001, 1120 GM AE/HA): 2% | Average % Injury across locations at 14 DAT ([4]; pDAS1580-[1]-018.001, 2240 GM AE/HA): 4% | Average % Injury across locations at 14 DAT ([4]; pDAS1580-[1]-018.001, 4480 GM AE/HA): 4% | Average % Injury across locations at 14 DAT [4, 7]: 0% | Average % Injury across locations at 14 DAT ([4]; pDAS1580-[1]-020.016, 560 GM AE/HA): 0% | Average % Injury across locations at 14 DAT ([4]; pDAS1580-[1]-020.016, 1120 GM AE/HA): 1% | Average % Injury across locations at 14 DAT ([4]; pDAS1580-[1]-020.016, 2240 GM AE/HA): 4% | Average % Injury across locations at 14 DAT ([4]; pDAS1580-[1]-020.016, 4480 GM AE/HA): 4%

Nc1c(Cl)c(F)nc(OCC(=O)O)c1Cl [Fluroxypyr]
visual injury ([1]; Fluroxypyr at 280 g ae/ha, 14DAA): 37% | % Visual Injury at 14 DAT ([1]; 280 GM AE/HA): 37 ab % | % Visual Injury 14DAT ([2]; 280 g ae/ha): 11% | brace root injury ([2]; Fluroxypyr at 280 g ae/ha): moderate brace root swelling and wandering | visual injury ([2]; Fluroxypyr at 280 g ae/ha): 11% | Brace Root Injury Rating (0-10 scale) 28DAT ([2]; Wild-type NK603, 280 g ae/ha): 2 | Average % Injury of Replicates 14 DAT (wildtype KY160 tobacco; 35 g ae/ha): 85% | Average % Injury of Replicates 14 DAT (wildtype KY160 tobacco; 140 g ae/ha): 93% | Average % Injury of Replicates 14 DAT (wildtype KY160 tobacco; 560 g ae/ha): 100% | % Visual Injury 14DAT ([3]; AAD-12 4101(0)003.R.003.AF, 280 g ae/ha): 1% | % Visual Injury 14DAT ([3]; AAD-12 4101(0)005.001.AF, 280 g ae/ha): 5% | Brace Root Injury Rating (0-10 scale) 28DAT ([3]; AAD-12 event 4101(0)003.R.003.AF, 280 g ae/ha): 0 | Brace Root Injury Rating (0-10 scale) 28DAT ([3]; AAD-12 event 4101(0)005.001.AF, 280 g ae/ha): 0 | brace root injury ([3]; Fluroxypyr at 280 g ae/ha): no brace root injury | visual injury, average ([3]; Fluroxypyr at 280 g ae/ha, 5DAT): 8% | average injury ([4]; Fluroxypyr at 280 g ae/ha, 14 DAT): 11% | Average % Injury across locations at 14 DAT [4, 5]: 11% | Average % Injury across locations at 14 DAT [4, 6]: 12% | Average % Injury across locations at 14 DAT [4, 7]: 11%
